Experimental data as given in ChEMBL document CHEMBL5724914, “Linking interpersonal differences in gut microbiota composition and drug biotransformation activity” (2024).

Key:
[1] = (§1) The drug is tested on Z-020 corresponding to rabbit gut metagenome with ENA study accession number: PRJEB37062 and ENA sample accession number: ERS12561819 for biotransformation under anaerobic condition. The drug concentrations were measured over 9 timepoints collected between 0 and 24 hours of incubation by liquid-chromatography-coupled mass spectrometry (LC–MS); conditions: 2 µM
[2] = human gut metagenome, 24 h, 2 µM
[3] = as §1, with “Z-026” for “Z-020”, “to” for “to rabbit gut”, “ERS12561825” for “ERS12561819”; conditions: 2 µM
[4] = human gut metagenome, 24 h, 2 µM; remark: listed apart in the source
[5] = human gut metagenome, 24 h, 2 µM; remark: listed apart in the source
[6] = human gut metagenome, 24 h, 2 µM; remark: listed apart in the source
[7] = as §1, with “Z-024” for “Z-020”, “pig” for “rabbit”, “ERS12561823” for “ERS12561819”; conditions: 2 µM
[8] = as §1, with “WLS-039” for “Z-020”, “human” for “rabbit”, “ERS12561746” for “ERS12561819”; conditions: 2 µM
[9] = human gut metagenome, 24 h, 2 µM; remark: listed apart in the source
[10] = human gut metagenome, 24 h, 2 µM; remark: listed apart in the source
[11] = human gut metagenome, 24 h, 2 µM; remark: listed apart in the source
[12] = human gut metagenome, 24 h, 2 µM; remark: listed apart in the source
[13] = human gut metagenome, 24 h, 2 µM; remark: listed apart in the source
[14] = as §1, with “WLS-350” for “Z-020”, “human” for “rabbit”, “ERS12561789” for “ERS12561819”; conditions: 2 µM
[15] = as §1, with “Z-002” for “Z-020”, “ERS12561802” for “ERS12561819”; conditions: 2 µM
[16] = human gut metagenome, 24 h, 2 µM; remark: listed apart in the source
[17] = human gut metagenome, 24 h, 2 µM; remark: listed apart in the source
[18] = as §1, with “Z-005” for “Z-020”, “to” for “to rabbit gut”, “ERS12561805” for “ERS12561819”; conditions: 2 µM
[19] = as §1, with “WLS-090” for “Z-020”, “human” for “rabbit”, “ERS12561753” for “ERS12561819”; conditions: 2 µM
[20] = as §1, with “WLS-052” for “Z-020”, “human” for “rabbit”, “ERS12561747” for “ERS12561819”; conditions: 2 µM
Note: call rule not given here.

Compound | Bacterial Biotransformation [1] | Bacterial Biotransformation [2] | Bacterial Biotransformation [3] | Bacterial Biotransformation [4] | Bacterial Biotransformation [5] | Bacterial Biotransformation [6] | Bacterial Biotransformation [7] | Bacterial Biotransformation [8] | Bacterial Biotransformation [9] | Bacterial Biotransformation [10] | Bacterial Biotransformation [11] | Bacterial Biotransformation [12] | Bacterial Biotransformation [13] | Bacterial Biotransformation [14] | Bacterial Biotransformation [15] | Bacterial Biotransformation [16] | Bacterial Biotransformation [17] | Bacterial Biotransformation [18] | Bacterial Biotransformation [19] | Bacterial Biotransformation [20]
CC(C)(C)NC(=O)[C@H]1CC[C@H]2[C@@H]3CC[C@H]4NC(=O)C=C[C@]4(C)[C@H]3CC[C@]12C [FINASTERIDE] | Compound metabolized | Compound metabolized | Compound metabolized | Compound metabolized | Compound metabolized | Compound metabolized | Compound metabolized | Compound metabolized | Compound metabolized | Compound metabolized | Compound metabolized | Compound metabolized | Compound metabolized | Compound metabolized | Compound metabolized | Compound metabolized | Compound metabolized | Compound metabolized | Compound metabolized | Compound metabolized
CCN(C)C(=O)Oc1cccc([C@H](C)N(C)C)c1.O=C(O)C(O)C(O)C(=O)O [RIVASTIGMINE TARTRATE] | Compound NOT metabolized | Compound NOT metabolized | Compound NOT metabolized | Compound NOT metabolized | Compound NOT metabolized | Compound NOT metabolized | Compound NOT metabolized | Compound metabolized | Compound NOT metabolized | Compound NOT metabolized | Compound NOT metabolized | Compound NOT metabolized | Compound metabolized | Compound NOT metabolized | Compound NOT metabolized | Compound metabolized | Compound metabolized | Compound NOT metabolized | Compound NOT metabolized | Compound metabolized
Br.CN1CCC[C@@H]1Cc1c[nH]c2ccc(CCS(=O)(=O)c3ccccc3)cc12 [ELETRIPTAN HYDROBROMIDE] | Compound NOT metabolized | Compound NOT metabolized | Compound NOT metabolized | Compound NOT metabolized | Compound metabolized | Compound NOT metabolized | Compound NOT metabolized | Compound NOT metabolized | Compound NOT metabolized | Compound NOT metabolized | Compound metabolized | Compound NOT metabolized | Compound metabolized | Compound NOT metabolized | Compound metabolized | Compound NOT metabolized | Compound NOT metabolized | Compound NOT metabolized | Compound metabolized | Compound NOT metabolized
CCN(CC)CCNC(=O)c1cc(S(C)(=O)=O)ccc1OC [TIAPRIDE] | Compound NOT metabolized | Compound NOT metabolized | Compound NOT metabolized | Compound NOT metabolized | Compound NOT metabolized | Compound NOT metabolized | Compound NOT metabolized | Compound NOT metabolized | Compound NOT metabolized | Compound NOT metabolized | Compound metabolized | Compound NOT metabolized | Compound metabolized | Compound NOT metabolized | Compound metabolized | Compound NOT metabolized | Compound NOT metabolized | Compound NOT metabolized | Compound metabolized | Compound NOT metabolized
COc1cc(C(=O)NCc2ccc(OCCN(C)C)cc2)cc(OC)c1OC [TRIMETHOBENZAMIDE] | Compound NOT metabolized | Compound NOT metabolized | Compound NOT metabolized | Compound NOT metabolized | Compound NOT metabolized | Compound NOT metabolized | Compound NOT metabolized | Compound NOT metabolized | Compound NOT metabolized | Compound NOT metabolized | Compound NOT metabolized | Compound NOT metabolized | Compound NOT metabolized | Compound NOT metabolized | Compound NOT metabolized | Compound NOT metabolized | Compound NOT metabolized | Compound NOT metabolized | Compound NOT metabolized | Compound NOT metabolized
COc1ccc([C@@H]2Sc3ccccc3N(CCN(C)C)C(=O)[C@@H]2OC(C)=O)cc1 [DILTIAZEM] | Compound metabolized | Compound NOT metabolized | Compound NOT metabolized | Compound NOT metabolized | Compound metabolized | Compound NOT metabolized | Compound NOT metabolized | Compound metabolized | Compound metabolized | Compound metabolized | Compound metabolized | Compound metabolized | Compound metabolized | Compound metabolized | Compound metabolized | Compound NOT metabolized | Compound NOT metabolized | Compound NOT metabolized | Compound metabolized | Compound NOT metabolized
Nc1nc(NC2CC2)c2ncn([C@H]3C=C[C@@H](CO)C3)c2n1.Nc1nc(NC2CC2)c2ncn([C@H]3C=C[C@@H](CO)C3)c2n1.O=S(=O)(O)O [ABACAVIR SULFATE] | Compound NOT metabolized | Compound NOT metabolized | Compound NOT metabolized | Compound NOT metabolized | Compound metabolized | Compound NOT metabolized | Compound NOT metabolized | Compound NOT metabolized | Compound metabolized | Compound metabolized | Compound metabolized | Compound NOT metabolized | Compound metabolized | Compound metabolized | Compound metabolized | Compound metabolized | Compound metabolized | Compound NOT metabolized | Compound metabolized | Compound NOT metabolized
CC1Cc2ccccc2N1NC(=O)c1ccc(Cl)c(S(N)(=O)=O)c1 (stereo not given) [INDAPAMIDE] | Compound NOT metabolized | Compound NOT metabolized | Compound NOT metabolized | Compound NOT metabolized | Compound NOT metabolized | Compound NOT metabolized | Compound NOT metabolized | Compound NOT metabolized | Compound NOT metabolized | Compound NOT metabolized | Compound NOT metabolized | Compound NOT metabolized | Compound NOT metabolized | Compound NOT metabolized | Compound NOT metabolized | Compound NOT metabolized | Compound NOT metabolized | Compound NOT metabolized | Compound NOT metabolized | Compound NOT metabolized
